PubChem BioAssay AID248 (DTP/NCI, 2004)
Several values for one entry are separate records, joined by “and”; a condition that tells them apart may be missing. Identical values can stand only once. Inconclusive results and toxic doses are left out.

Tested on: L1210 leukemia ip in BDF1 mice, survival T/C
Assay: NCI In Vivo Anticancer Drug Screen. Data for tumor model L1210 Leukemia (intraperitoneal) in B6D2F1 (BDF1) mice
Conditions: endpoint: mean survival time, higher = longer survival
Protocol: The antitumor activity of compounds was measured in mice bearing transplantable tumors. Survival or tumor size were measured and the results are expressed as the measurement made in the treated group (T) divided by the measurement made in the vehicle treated control group (C). The tumor model used in this assay is L1210 Leukemia (intraperitoneal) in B6D2F1 (BDF1) mice

[1] = dose: 25.0 mg/kg/injection, schedule: Q04DX003 (ip), vehicle: saline
[2] = dose: 50.0 mg/kg/injection, schedule: Q04DX003 (ip), vehicle: saline
[3] = dose: 100.0 mg/kg/injection, schedule: Q01DX001 (ip), vehicle: saline
[4] = dose: 100.0 mg/kg/injection, schedule: Q04DX003 (ip), vehicle: saline
[5] = dose: 200.0 mg/kg/injection, schedule: Q01DX001 (ip), vehicle: saline
[6] = dose: 50.0 mg/kg/injection, schedule: Q01DX001 (ip), vehicle: carboxymethylcellulose (CMC)
[7] = dose: 100.0 mg/kg/injection, schedule: Q01DX001 (ip), vehicle: carboxymethylcellulose (CMC)
[8] = dose: 200.0 mg/kg/injection, schedule: Q01DX001 (ip), vehicle: carboxymethylcellulose (CMC)
[9] = dose: 400.0 mg/kg/injection, schedule: Q01DX001 (ip), vehicle: carboxymethylcellulose (CMC)
[10] = dose: 100.0 mg/kg/injection, schedule: Q01DX001 (ip), vehicle: saline with Tween-80
[11] = dose: 200.0 mg/kg/injection, schedule: Q01DX001 (ip), vehicle: saline with Tween-80
[12] = dose: 400.0 mg/kg/injection, schedule: Q01DX001 (ip), vehicle: saline with Tween-80
[13] = dose: 100.0 mg/kg/injection, schedule: Q01DX009 (ip), vehicle: Klucel (hydroxypropylcellulose) (HPC)
[14] = dose: 100.0 mg/kg/injection, schedule: Q04DX003 (ip), vehicle: Klucel (hydroxypropylcellulose) (HPC)
[15] = dose: 200.0 mg/kg/injection, schedule: Q01DX009 (ip), vehicle: Klucel (hydroxypropylcellulose) (HPC)
[16] = dose: 200.0 mg/kg/injection, schedule: Q04DX003 (ip), vehicle: Klucel (hydroxypropylcellulose) (HPC)
[17] = dose: 400.0 mg/kg/injection, schedule: Q01DX009 (ip), vehicle: Klucel (hydroxypropylcellulose) (HPC)
[18] = dose: 400.0 mg/kg/injection, schedule: Q04DX003 (ip), vehicle: Klucel (hydroxypropylcellulose) (HPC)
[19] = dose: 200.0 mg/kg/injection, schedule: Q04DX003 (ip), vehicle: saline
[20] = dose: 400.0 mg/kg/injection, schedule: Q04DX003 (ip), vehicle: saline

O=C(O)/C=C/C(=O)Nc1ccc2c(c1)Cc1cc(NC(=O)C(F)(F)F)ccc1-2
T/C (dose: 25.0 mg/kg/injection, schedule: Q01DX009 (ip), vehicle: saline): 105 % of control
T/C [1]: 102 % of control
T/C (dose: 50.0 mg/kg/injection, schedule: Q01DX009 (ip), vehicle: saline): 101 % of control
T/C [2]: 96 % of control
T/C [3]: 90 % of control
T/C (dose: 100.0 mg/kg/injection, schedule: Q01DX009 (ip), vehicle: saline): 100 % of control
T/C [4]: 98 % of control
T/C [5]: 90 % of control

S=c1nc[nH]c2nc[nH]c12.[Ag]
T/C (dose: 3.0 mg/kg/injection, schedule: Q01DX009 (ip), vehicle: carboxymethylcellulose (CMC)): 106 % of control and 92 % of control
T/C (dose: 6.0 mg/kg/injection, schedule: Q01DX009 (ip), vehicle: carboxymethylcellulose (CMC)): 101 % of control
T/C (dose: 12.0 mg/kg/injection, schedule: Q01DX009 (ip), vehicle: carboxymethylcellulose (CMC)): 113 % of control
T/C (dose: 50.0 mg/kg/injection, schedule: Q01DX009 (ip), vehicle: carboxymethylcellulose (CMC)): 113 % of control and 119 % of control
T/C (dose: 400.0 mg/kg/injection, schedule: Q01DX009 (ip), vehicle: carboxymethylcellulose (CMC)): 101 % of control
T/C (dose: 600.0 mg/kg/injection, schedule: Q01DX009 (ip), vehicle: carboxymethylcellulose (CMC)): 154 % of control
T/C (dose: 800.0 mg/kg/injection, schedule: Q01DX009 (ip), vehicle: carboxymethylcellulose (CMC)): 157 % of control and 159 % of control
T/C (dose: 800.0 mg/kg/injection, schedule: Q01DX009 (ip), vehicle: saline): 154 % of control
T/C (dose: 1000.0 mg/kg/injection, schedule: Q01DX009 (ip), vehicle: carboxymethylcellulose (CMC)): 119 % of control
T/C (dose: 1000.0 mg/kg/injection, schedule: Q01DX009 (ip), vehicle: saline): 154 % of control

Cc1ccc(O)c(C(=O)c2ccccc2)c1
T/C [6]: 96 % of control
T/C [7]: 99 % of control
T/C [8]: 89 % of control
T/C [9]: 94 % of control

CCCCCCCCCC(C)CCCCCCC (configuration not stated)
T/C [10]: 103 % of control
T/C [11]: 97 % of control
T/C [12]: 100 % of control

O=c1[nH]c(=O)n(C2OC(CO)C(O)C2O)cc1O (configuration not stated)
T/C (dose: 100.0 mg/kg/injection, schedule: Q01DX001 (ip), vehicle: water): 92 % of control
T/C (dose: 200.0 mg/kg/injection, schedule: Q01DX001 (ip), vehicle: water): 94 % of control
T/C (dose: 400.0 mg/kg/injection, schedule: Q01DX001 (ip), vehicle: water): 103 % of control

CCOP(=O)(/N=C1/C2CCC(C2)C1C)OCC (configuration not stated)
T/C (dose: 12.5 mg/kg/injection, schedule: Q04DX003 (ip), vehicle: saline): 94 % of control
T/C [1]: 105 % of control
T/C [2]: 102 % of control

CN(Cc1ccc2nc(N)nc(N)c2c1)c1ccc(C(=O)NC(CCC(=O)O)C(=O)O)cc1 (configuration not stated)
T/C (dose: 0.12 mg/kg/injection, schedule: Q01DX009 (ip), vehicle: other): 123 % of control
T/C (dose: 0.5 mg/kg/injection, schedule: Q01DX009 (ip), vehicle: other): 192 % of control
T/C (dose: 1.0 mg/kg/injection, schedule: Q01DX009 (ip), vehicle: other): 190 % of control
T/C (dose: 1.25 mg/kg/injection, schedule: Q01DX009 (ip), vehicle: saline): 154 % of control
T/C (dose: 2.1 mg/kg/injection, schedule: Q01DX009 (ip), vehicle: other): 101 % of control
T/C (dose: 2.5 mg/kg/injection, schedule: Q01DX009 (ip), vehicle: saline): 113 % of control
T/C (dose: 5.0 mg/kg/injection, schedule: Q01DX001 (ip), vehicle: other): 151 % of control
T/C (dose: 5.0 mg/kg/injection, schedule: Q01DX009 (ip), vehicle: saline): 97 % of control
T/C (dose: 6.6 mg/kg/injection, schedule: Q01DX001 (ip), vehicle: other): 119 % of control
T/C (dose: 6.6 mg/kg/injection, schedule: Q01DX001 (ip), vehicle: saline): 119 % of control
T/C (dose: 10.0 mg/kg/injection, schedule: Q01DX001 (ip), vehicle: other): 159 % of control
T/C (dose: 15.0 mg/kg/injection, schedule: Q01DX001 (ip), vehicle: other): 154 % of control

O=C1C(=O)N2c3ccccc3CCc3cccc1c32
T/C [10]: 103 % of control
T/C (dose: 100.0 mg/kg/injection, schedule: Q01DX009 (ip), vehicle: saline with Tween-80): 96 % of control
T/C [11]: 93 % of control
T/C (dose: 200.0 mg/kg/injection, schedule: Q01DX009 (ip), vehicle: saline with Tween-80): 100 % of control
T/C [12]: 97 % of control
T/C (dose: 400.0 mg/kg/injection, schedule: Q01DX009 (ip), vehicle: saline with Tween-80): 100 % of control

O=C(O)CNc1cccnc1
T/C (dose: 25.0 mg/kg/injection, schedule: Q01DX009 (ip), vehicle: Klucel (hydroxypropylcellulose) (HPC)): 95 % of control
T/C (dose: 50.0 mg/kg/injection, schedule: Q01DX009 (ip), vehicle: Klucel (hydroxypropylcellulose) (HPC)): 100 % of control
T/C [13]: 101 % of control

CC(C)(C)C(=O)Nc1ccc(S(=O)(=O)c2ccc(NC(=O)C(C)(C)C)cc2)cc1
T/C (dose: 50.0 mg/kg/injection, schedule: Q01DX001 (ip), vehicle: saline): 95 % of control
T/C [3]: 93 % of control
T/C [5]: 93 % of control
T/C (dose: 400.0 mg/kg/injection, schedule: Q01DX001 (ip), vehicle: saline): 98 % of control

COc1ccc2c(c1)CCC1=C2CCC2C(=O)OC(=O)C12C (configuration not stated)
T/C [13]: 98 % of control
T/C [14]: 90 % of control
T/C [15]: 95 % of control
T/C [16]: 98 % of control
T/C [17]: 101 % of control
T/C [18]: 97 % of control

NC(=O)c1cccn1-c1cccc2c(-n3cccc3C(N)=O)cccc12
T/C (dose: 50.0 mg/kg/injection, schedule: Q04DX002 (ip), vehicle: saline with Tween-80): 89 % of control

CC1=NCC[N-]CC[N-]CCN=C(C)C2CCCC1[N-]2.[Mn+3]
T/C (dose: 10.0 mg/kg/injection, schedule: Q01DX001 (ip), vehicle: saline): 105 % of control
T/C (dose: 20.0 mg/kg/injection, schedule: Q01DX001 (ip), vehicle: saline): 102 % of control
T/C (dose: 40.0 mg/kg/injection, schedule: Q01DX001 (ip), vehicle: saline): 102 % of control

C=CC1CC(=O)N1C (configuration not stated)
T/C [4]: 100 % of control
T/C [19]: 110 % of control
T/C [20]: 112 % of control

c1ccc2c(c1)Cc1cc(CN3CCOCC3)ccc1-2
T/C [6]: 92 % of control
T/C [7]: 100 % of control
T/C [8]: 94 % of control
T/C [9]: 94 % of control

BrC1(Br)CC1(c1ccccc1)c1ccccc1
T/C [13]: 93 % of control
T/C [14]: 107 % of control
T/C [4]: 107 % of control
T/C [15]: 97 % of control
T/C [16]: 107 % of control
T/C [19]: 107 % of control
T/C [17]: 101 % of control
T/C [18]: 97 % of control
T/C [20]: 97 % of control

CC1(CCCC2C(=O)N(c3ccccc3)N(c3ccccc3)C2=O)OCCO1
T/C [14]: 104 % of control
T/C [16]: 98 % of control
T/C [18]: 94 % of control

CCC12C=CCN3CCC4(c5cc(C(c6ccc(OC)cc6)c6cc7ccccc7n6S(=O)(=O)c6ccccc6)c(OC)cc5N(C)C4C(O)(C(=O)OC)C1OC(C)=O)C32 (configuration not stated)
T/C (dose: 50.0 mg/kg/injection, schedule: Q04DX002 (ip), vehicle: Klucel (hydroxypropylcellulose) (HPC)): 98 % of control
T/C (dose: 100.0 mg/kg/injection, schedule: Q04DX002 (ip), vehicle: Klucel (hydroxypropylcellulose) (HPC)): 98 % of control
T/C (dose: 200.0 mg/kg/injection, schedule: Q04DX002 (ip), vehicle: Klucel (hydroxypropylcellulose) (HPC)): 102 % of control

Cc1ccc(NC(=O)/C=C\C(=O)O)cc1
T/C [13]: 103 % of control
T/C [14]: 97 % of control
T/C [15]: 108 % of control
T/C [16]: 96 % of control
T/C [17]: 91 % of control
T/C [18]: 91 % of control

CCCCCCCCCCP(=S)(CCCC)CCCC
T/C [14]: 98 % of control
T/C [16]: 101 % of control
T/C [18]: 104 % of control
